In patent US6489342B2, “Aryloxy piperidinyl indoles for treating depression” (Wyeth, priority 2000, dated 2002):
Where a name gives a salt, the structure may show the parent alone.

Assays:
[1] = molecular target: T1, 5-HT1A (Homo sapiens, UniProt P08908); experiment: 5-HT1A receptor binding, [3H]DPAT; settings: radioligand [3H]DPAT
T1 sequence (P08908 1-422): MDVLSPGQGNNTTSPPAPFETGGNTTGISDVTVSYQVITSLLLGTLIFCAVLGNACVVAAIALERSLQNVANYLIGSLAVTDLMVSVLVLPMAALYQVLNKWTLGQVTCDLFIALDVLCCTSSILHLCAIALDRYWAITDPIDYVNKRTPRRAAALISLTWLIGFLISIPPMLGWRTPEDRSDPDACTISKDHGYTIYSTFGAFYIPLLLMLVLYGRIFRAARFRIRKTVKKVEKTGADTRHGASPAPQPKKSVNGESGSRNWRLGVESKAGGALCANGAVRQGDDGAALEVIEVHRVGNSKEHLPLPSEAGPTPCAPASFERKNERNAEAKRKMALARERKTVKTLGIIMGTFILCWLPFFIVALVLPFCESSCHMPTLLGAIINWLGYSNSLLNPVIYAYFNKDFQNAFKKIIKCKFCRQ

## Fc1ccc2[nH]cc(CC3CCN(CCOc4cccc5[nH]ccc45)CC3)c2c1 (as salt: hydrochloride) (hydrate or solvate) [Example 1, 5-Fluoro-3-{1-[2-(1H-indol-4-yloxy)ethyl]-piperidin-4-ylmethyl}-1H-indole]
other
  melting point: 215 °C (dec.)

## CC(CN1CCC(Cc2c[nH]c3ccc(F)cc23)CC1)Oc1cccc2[nH]ccc12 (stereo not shown) (as salt: hydrochloride) [Example 2, 5-Fluoro-3-[[1-[2-(1H-indol-4-yloxy)propyl]-4-piperidinyl]methyl]-1H-indole]
other
  melting point: 130 to 132 °C

## Fc1ccc2[nH]cc(CC3CCN(CCOc4cccc5[nH]ccc45)CC3)c2c1 [Example 1, 5-Fluoro-3-{1-[2-(1H-indol-4-yloxy)ethyl]-piperidin-4-ylmethyl}-1H-indole]
[1]
  Ki: 47 nM

## CC(CN1CCC(Cc2c[nH]c3ccc(F)cc23)CC1)Oc1cccc2[nH]ccc12 (stereo not shown) [Example 2, 5-Fluoro-3-[[1-[2-(1H-indol-4-yloxy)propyl]-4-piperidinyl]methyl]-1H-indole]
[1]; @ 100 nM
  5-HT1A [3H]DPAT, percent at 100 nM: 14% @
